Key:
[1] = molecular target: T1, μ-opioid receptor (Homo sapiens, UniProt P35372); assay: biochemical; design: purchased Perkin Elmer, Shelton, Conn; host or cells: HEK-293 or CHO; details: HEK-293 or CHO cells; for Emax: relative to DAMGO, read-out: GTPγS μ Emax; for EC50: read-out: GTPγS μ EC50
[2] = molecular target: T2, κ-opioid receptor (Homo sapiens, UniProt P41145); assay: κ-opioid receptor radioligand binding assay ([3H]-U69,593); design: expressed in transfected cells; host or cells: HEK-293; details: HEK-293 or CHO cells; read-out: Ki (nM) Opioid Receptor κ
Procedure: κ-opioid Receptor Binding Assay Procedures: Membranes from recombinant HEK-293 cells expressing the human κ opioid receptor (κ) (cloned in house) were prepared by lysing cells in ice cold hypotonic buffer (2.5 mM MgCl2, 50 mM HEPES, pH 7.4) (10 mL/10 cm dish) followed by homogenization with a tissue grinder/Teflon pestle. Membranes were collected by centrifugation at 30,000×g for 15 min at 4° C. and pellets were resuspended in hypotonic buffer to a final concentration of 1-3 mg/mL. Protein concentrations were determined using the BioRad protein assay reagent with bovine serum albumen as standard. Aliquots of κ receptor membranes were stored at −80° C.
Radioligand dose displacement assays used 0.4 nM [^3H]-U69,593 (GE Healthcare, Piscataway, N.J.; 40 Ci/mmole) with 15 μg membrane protein (recombinant κ opioid receptor expressed in HEK 293 cells; in-house prep) in a final volume of 200 μl binding buffer (5% DMSO, 50 mM Trizma base, pH 7.4). Non-specific binding was determined in the presence of 10 μM unlabeled naloxone or U69,593. All reactions were performed in 96-well polypropylene plates for 1 hr at a temperature of about 25° C.

[3] = molecular target: T2, κ-opioid receptor; assay: κ-opioid receptor β-Arr2 activity response, U2OS cells; format: cell-based; design: expressed in transfected cells; host or cells: U-2 OS; details: U2OS cells; for EC50: read-out: β-Arr2 κ EC50
[4] = molecular target: T2, κ-opioid receptor; assay: κ-opioid receptor [35S]GTPγS functional assay, HEK-293 or CHO cells; format: biochemical; design: expressed in transfected cells; host or cells: HEK-293; details: HEK-293 or CHO cells; for EC50: read-out: GTPγS κ EC50; for Emax: relative to U69,593
Procedure: (§1) Plates were incubated for 30 min at a temperature of about 25° C. with shaking.

[5] = molecular target: T1, μ-opioid receptor; assay: μ-opioid receptor GTPγS functional assay, U2OS cells; details: for Emax: read-out: GTPγS μ Emax
[6] = molecular target: T1, μ-opioid receptor; assay: μ-opioid receptor radioligand binding assay ([3H]-diprenorphine); design: purchased Perkin Elmer, Shelton, Conn; host or cells: HEK-293 or CHO; details: HEK-293 or CHO cells; read-out: Ki (nM) Opioid Receptor μ
Procedure: μ-opioid Receptor Binding Assay Procedures: Radioligand dose-displacement binding assays for μ-opioid receptors used 0.3 nM [^3H]-diprenorphine (Perkin Elmer, Shelton, Conn.), with […] membrane protein/well in a final volume of 500 μl binding buffer (10 mM MgCl2, 1 mM EDTA, 5% DMSO, 50 mM HEPES, pH 7.4). Reactions were carried out in the absence or presence of increasing concentrations of unlabeled naloxone. All reactions were conducted in 96-deep well polypropylene plates for 2 hr at room temperature. […] The data were analyzed using the one-site competition curve fitting functions in GraphPad PRISM™ v. 3.0 or higher (San Diego, Calif.), or an in-house function for one-site competition curve-fitting.

[7] = molecular target: T2, κ-opioid receptor; assay: κ-opioid receptor GTPγS functional assay, U2OS cells; format: biochemical; design: expressed in transfected cells; host or cells: U-2 OS; details: U2OS cells; for EC50: read-out: GTPγS κ EC50
Procedure: as §1

[8] = molecular target: T1, μ-opioid receptor; assay: cell-based; design: purchased Perkin Elmer, Shelton, Conn; details: U2OS cells; for Emax: read-out: β-Arr2 μ Emax

T1 sequence (P35372 whole entry, species assumed): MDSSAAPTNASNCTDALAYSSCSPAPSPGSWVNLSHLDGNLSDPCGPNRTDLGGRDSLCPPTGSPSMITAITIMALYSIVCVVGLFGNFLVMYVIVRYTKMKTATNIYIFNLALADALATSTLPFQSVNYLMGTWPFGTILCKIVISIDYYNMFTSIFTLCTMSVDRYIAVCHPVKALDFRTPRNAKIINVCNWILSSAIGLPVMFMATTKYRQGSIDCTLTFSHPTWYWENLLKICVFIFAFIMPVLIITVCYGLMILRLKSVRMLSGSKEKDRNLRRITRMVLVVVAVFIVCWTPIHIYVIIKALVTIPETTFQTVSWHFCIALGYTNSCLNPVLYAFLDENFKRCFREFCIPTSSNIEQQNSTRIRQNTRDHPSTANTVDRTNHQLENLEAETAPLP
T2 sequence (P41145 whole entry): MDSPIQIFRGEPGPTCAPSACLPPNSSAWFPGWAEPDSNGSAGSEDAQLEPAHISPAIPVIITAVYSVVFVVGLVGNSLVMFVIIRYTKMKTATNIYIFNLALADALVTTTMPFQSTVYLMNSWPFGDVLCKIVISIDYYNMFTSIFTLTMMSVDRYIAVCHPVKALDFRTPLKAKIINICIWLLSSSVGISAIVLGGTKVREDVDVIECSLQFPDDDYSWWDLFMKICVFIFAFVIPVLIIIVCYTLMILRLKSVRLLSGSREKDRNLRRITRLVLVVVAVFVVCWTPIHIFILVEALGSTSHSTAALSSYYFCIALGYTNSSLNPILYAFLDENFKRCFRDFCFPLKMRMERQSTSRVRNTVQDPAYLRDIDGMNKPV

SMILES | Emax [1] [%] | Ki [2] [nM] | Emax [3] [%] | EC50 [3] [nM] | EC50 [4] [nM] | Emax [4] [%] | EC50 [5] [nM] | Emax [5] [%] | Ki [6] [nM] | Emax [7] [%] | EC50 [7] [nM] | Emax [8] [%] | EC50 [1] [nM] | EC50 ([8]; read-out: β-Arr2 μ EC50) [nM]
COC(=O)[C@H](CCCCN)NCCCC[C@]12CCN(CC3CC3)[C@H](Cc3ccc(O)cc31)[C@@H]2C [Compound 26, methyl (4-((2R,6R,11R)-3-(cyclopropyl-methyl)-8-hydroxy-11-methyl-2,3,4,5-tetrahydro-2,6-methanobenzo[d]azocin-6(1H)-yl)butyl)-L-lysinate] | 0.33 ± 0.67 | 0.053 | 17.5 ± 2.72 | 0.081 ± 0.019 | 0.19 ± 0.058 | 51 ± 2.04 | 0.51 ± 0.054 | 40 ± 1.73 | 0.73 ± 0.1 | 102 ± 3.48 | 0.14 | 0 | – | –
COc1ccc2c(c1)[C@]1(CCNC3(C(=O)O)CC3)CCN(CC3CC3)[C@H](C2)[C@@H]1C [Compound 34, 1-((2-((2R,6R,11R)-3-(cyclopropyl-methyl)-8-methoxy-11-methyl-2,3,4,5-tetrahydro-2,6-methanobenzo[d]azocin-6(1H)-yl)ethyl)amino)cyclopropane-1-carboxylic acid] | 70.3 ± 3.71 | 286 ± 2.93 | – | – | 7900 ± 2010 | 81.3 ± 10.2 | – | – | 1470 ± 177 | – | – | – | 2880 ± 310 | –
C[C@H]1[C@H]2Cc3ccc(O)cc3[C@]1(CCCC(N)=O)CCN2CC1CCC1 [Compound 29, 4-((2R,6R,11R)-3-(cyclobutylmethyl)-8-hydroxy-11-methyl-2,3,4,5-tetrahydro-2,6-methanobenzo[d]azocin-6(1H)-yl)butanamide] | 1 | 0.12 ± 0.019 | 45 ± 3 | 2.06 ± 0.32 | 7.6 ± 1.67 | 87.7 ± 3.18 | 2.65 ± 0.89 | 41.3 ± 4.91 | 1.82 ± 0.57 | 108 ± 1.2 | 0.39 ± 0.016 | -1.5 | – | –
CC(C)[C@H](NCC[C@@]12CCN(CC3CC3)[C@@H](Cc3ccc(O)cc31)[C@H]2C)C(=O)O [Compound 42, (2-((2S,6S,11S)-3-(cyclopropylmethyl)-8-hydroxy-11-methyl-2,3,4,5-tetrahydro-2,6-methanobenzo[d]azocin-6(1H)-yl)ethyl)-L-valine] | 56 ± 2.52 | 2620 ± 729 | – | – | – | – | – | – | 4610 ± 551 | – | – | – | 2390 ± 230 | –
C[C@H]1[C@H]2Cc3ccc(O)cc3[C@]1(CCCC(=O)N(C)C)CCN2CC1CCC1 [Compound 28, 4-((2R,6R,11R)-3-(cyclobutylmethyl)-8-hydroxy-11-methyl-2,3,4,5-tetrahydro-2,6-methanobenzo[d]azocin-6(1H)-yl)-N,N-dimethylbutanamide] | 1 | 0.22 ± 0.056 | 45 ± 2.08 | 2.37 ± 0.62 | 4.58 ± 0.38 | 95.3 ± 1.45 | 2.71 ± 0.67 | 57.3 ± 6.57 | 1.45 ± 0.013 | 104 ± 2.85 | 0.49 ± 0.016 | 3.7 ± 0.49 | – | 30.5 ± 4.44
C[C@H]1[C@H]2Cc3ccc(O)cc3[C@]1(CCNC(=O)c1ccc(C(=O)O)cc1)CCN2CC1CC1 [Compound 32, 4-((2-((2R,6R,11R)-3-(cyclopropyl-methyl)-8-hydroxy-11-methyl-2,3,4,5-tetrahydro-2,6-methanobenzo[d]azocin-6(1H)-yl)ethyl)carbamoyl)benzoic acid] | -1 | 35 ± 5.97 | 11.3 ± 1.2 | 26.7 ± 10.5 | 144 ± 25.4 | 91.3 ± 9.94 | 2.16 ± 0.38 | 57.3 ± 5.04 | 5.62 ± 1.41 | 97.7 ± 4.67 | 35.7 ± 5.29 | -1 | – | –
